The record followed here is patent US20060211698A1, “Bicyclic heteroaryl derivatives for treating viruses” (Genelabs, Inc., priority 2005, published 2006).

The experiment addresses T1, HCV-NS5b (Hepatitis C virus genotype 1b, UniProt Q9WMX2).
T1 construct: The cloned fragment was missing the C terminus 21 amino acid residues; (His)6 (C); made in house; host or cells: XL-1 cells (E. coli)
Kind of experiment: HCV-NS5b Enzyme Assay. Format: biochemical. Particulars: 1 μM test compound; incorporation of [3H]-UTP, 37° C., 2 hours. From the text:
The coding sequence of NS5b protein was cloned by PCR from pFKI389luc/NS3-3′/ET as described by Lohmann, V., et al. (1999) Science 285, 110-113 using the following primers: • […] (SEQ. ID. NO. 1) • […] (SEQ. ID. NO. 2)
The cloned fragment was missing the C terminus 21 amino acid residues. The cloned fragment is inserted into an IPTG-inducible expression plasmid that provides an epitope tag (His)6 at the carboxy terminus of the protein.
The recombinant enzyme was expressed in XL-1 cells and after induction of expression, the protein was purified using affinity chromatography on a nickel-NTA column. Storage condition is 10 mM Tris-HCl pH 7.5, 50 mM NaCl, 0.1 mM EDTA, 1 mM DTT, 20% glycerol at −20° C.
The polymerase activity was assayed by measuring incorporation of radiolabeled UTP into a RNA product using a biotinylated, heteropolymeric template, which includes a portion of the HCV genome. Typically, the assay mixture […] contains 10 mM Tris-HCl (pH 7.5), 5 mM MgCl2, 0.2 mM EDTA, 10 mM KCl, 1 unit/μL RNAsin. 1 mM DTT, 10 μM each of NTP, including [^3H]-UTP, and 10 ng/μL biotinylated heteropolymeric template. 20× test compound in 2 μl's was then added as a 100% DMSO solution to achieve a final DMSO concentration of 5%. For IC50 determination a 10-point dose response was used. The compounds were serial diluted 2-fold […]. Typically for IC50's, compounds were tested starting at 50 uM or 2 μm depending on the potency. Reactions were started with addition of 10×NS5B in 4 μl's and allowed to incubate at 37° C. for 2 hours. Reactions were quenched with 8 μL of 100 mM EDTA and reaction mixtures (30 μL) were transferred to streptavidin-coated scintillation proximity microtiter plates (FlashPlates) and incubated at 4° C. overnight. Incorporation of radioactivity was determined by scintillation counting (cpm). The % Inhibition at a particular concentration was determined using the following equation, % Inhibition=100−[100*(cpm with inhibitor−bg)/(cpm with no inhibitor−bg)] where bg was the background with no enzyme.
The term inhibition denotes the drop in the measured response relative to a control, in per cent. In turn, `O=C(O)c1ccc2c(C3CCCCC3)c(-c3ccc4nc(-c5cccc(C(F)(F)F)c5)ccc4c3)n(CC(=O)N3CCOCC3)c2c1` [Compound 247, 3-Cyclohexyl-1-(2-morpholin-4-yl-2-oxo-ethyl)-2-[2-(3-trifluoromethyl-phenyl)-quinolin-6-yl]-1H-indole-6-carboxylic acid] showed an inhibition at 1 µM of 98.4%.

Regarding `Cc1nc(C(F)(F)F)sc1-c1ccc2cc(-c3c(C4CCCCC4)c4ccc(C(=O)O)cc4n3CC(=O)N3CCOCC3)ccc2n1` [Compound 248, 3-Cyclohexyl-2-[2-(4-methyl-2-trifluoromethyl-thiazol-5-yl)-quinolin-6-yl]-1-(2-morpholin-4-yl-2-oxo-ethyl)-1H-indole-6-carboxylic acid], testing at 1 µM gave an inhibition of 95.2%. The value for `Cc1ccnc(-c2ccc3cc(-c4c(C5CCCCC5)c5ccc(C(=O)O)cc5n4CC(=O)N4CCOCC4)ccc3n2)c1` [Compound 249, 3-Cyclohexyl-2-[2-(4-methyl-pyridin-2-yl)-quinolin-6-yl]-1-(2-morpholin-4-yl-2-oxo-ethyl)-1H-indole-6-carboxylic acid] was 99.5%. As for `Cc1ccc(-c2ccc3cc(-c4c(C5CCCCC5)c5ccc(C(=O)O)cc5n4CC(=O)N4CCOCC4)ccc3n2)cc1C` [Compound 250, 3-Cyclohexyl-2-[2-(3,4-dimethyl-phenyl)-quinolin-6-yl]-1-(2-morpholin-4-yl-2-oxo-ethyl)-1H-indole-6-carboxylic acid], the figure is 99.9%. Molecule `COc1cc(OC)cc(-c2ccc3cc(-c4c(C5CCCCC5)c5ccc(C(=O)O)cc5n4CC(=O)N4CCOCC4)ccc3n2)c1` [Compound 251, 3-Cyclohexyl-2-[2-(3,5-dimethoxy-phenyl)-quinolin-6-yl]-1-(2-morpholin-4-yl-2-oxo-ethyl)-1H-indole-6-carboxylic acid] had an inhibition at 1 µM of 98.5%. As for `Cc1ccc(-c2ccc3cc(-c4c(C5CCCCC5)c5ccc(C(=O)O)cc5n4CC(=O)N4CCOCC4)ccc3n2)cc1` [Compound 252, 3-Cyclohexyl-1-(2-morpholin-4-yl-2-oxo-ethyl)-2-(2-p-tolyl-quinolin-6-yl)-1H-indole-6-carboxylic acid], the figure is 95%. As for `COc1ccc(-c2ccc3cc(-c4c(C5CCCCC5)c5ccc(C(=O)O)cc5n4CC(=O)N4CCOCC4)ccc3n2)cc1OC` [Compound 253, 3-Cyclohexyl-2-[2-(3,4-dimethoxy-phenyl)-quinolin-6-yl]-1-(2-morpholin-4-yl-2-oxo-ethyl)-1H-indole-6-carboxylic acid], the figure is 97.5%. The value for `COc1ccc(-c2ccc3cc(-c4c(C5CCCCC5)c5ccc(C(=O)O)cc5n4CC(=O)N4CCOCC4)ccc3n2)cc1` [Compound 254, 3-Cyclohexyl-2-[2-(4-methoxy-phenyl)-quinolin-6-yl]-1-(2-morpholin-4-yl-2-oxo-ethyl)-1H-indole-6-carboxylic acid] was 96.9%; that for `O=C(O)c1ccc2c(C3CCCCC3)c(-c3ccc4nc(-c5ccccc5F)ccc4c3)n(CC(=O)N3CCOCC3)c2c1` [Compound 255, 3-Cyclohexyl-2-[2-(2-fluoro-phenyl)-quinolin-6-yl]-1-(2-morpholin-4-yl-2-oxo-ethyl)-1H-indole-6-carboxylic acid] was 97.4%; that for `O=C(O)c1ccc2c(C3CCCCC3)c(-c3ccc4nc(-c5cccc([N+](=O)[O-])c5)ccc4c3)n(CC(=O)N3CCOCC3)c2c1` [Compound 256, 3-Cyclohexyl-2-[2-(3-nitro-phenyl)-quinolin-6-yl]-1-(2-morpholin-4-yl-2-oxo-ethyl)-1H-indole-6-carboxylic acid] was 98.1%. The molecule `COc1ccc(-c2ccc3cc(-c4c(C5CCCCC5)c5ccc(C(=O)O)cc5n4CC(=O)N4CCOCC4)ccc3n2)c(F)c1` [Compound 257, 3-Cyclohexyl-2-[2-(2-fluoro-4-methoxy-phenyl)-quinolin-6-yl]-1-(2-morpholin-4-yl-2-oxo-ethyl)-1H-indole-6-carboxylic acid] registered an inhibition at 1 µM of 98.6%.

On to `Cc1cc(-c2ccc3cc(-c4c(C5CCCCC5)c5ccc(C(=O)O)cc5n4CC(=O)N4CCOCC4)ccc3n2)c(C)s1` [Compound 258, 3-Cyclohexyl-2-[2-(2,5-dimethyl-thiophen-3-yl)-quinolin-6-yl]-1-(2-morpholin-4-yl-2-oxo-ethyl)-1H-indole-6-carboxylic acid], for which 1 µM produced 97.4% inhibition. As for `O=C(O)c1ccc2c(C3CCCCC3)c(-c3ccc4nc(-c5c(F)cccc5F)ccc4c3)n(CC(=O)N3CCOCC3)c2c1` [Compound 259, 3-Cyclohexyl-2-[2-(2,6-difluoro-phenyl)-quinolin-6-yl]-1-(2-morpholin-4-yl-2-oxo-ethyl)-1H-indole-6-carboxylic acid], the figure is 95.8%; as for `Cc1nc(C)c(-c2ccc3cc(-c4c(C5CCCCC5)c5ccc(C(=O)O)cc5n4CC(=O)N4CCOCC4)ccc3n2)o1` [Compound 260, 3-Cyclohexyl-2-[2-(2,4-dimethyl-oxazol-5-yl)-quinolin-6-yl]-1-(2-morpholin-4-yl-2-oxo-ethyl)-1H-indole-6-carboxylic acid], 96%; as for `O=C(O)c1ccc2c(C3CCCCC3)c(-c3ccc4nc(-c5cccc(F)c5)ccc4c3)n(CC(=O)N3CCOCC3)c2c1` [Compound 261, 3-Cyclohexyl-2-[2-(3-fluoro-phenyl)-quinolin-6-yl]-1-(2-morpholin-4-yl-2-oxo-ethyl)-1H-indole-6-carboxylic acid], 97.1%.

The molecule `O=C(O)c1ccc2c(C3CCCCC3)c(-c3ccc4nc(-c5cccc(Br)c5)ccc4c3)n(CC(=O)N3CCOCC3)c2c1` [Compound 262, 2-[2-(3-Bromo-phenyl)-quinolin-6-yl]-3-cyclohexyl-1-(2-morpholin-4-yl-2-oxo-ethyl)-1H-indole-6-carboxylic acid] yielded an inhibition at 1 µM of 97.3%. As for `O=C(O)c1ccc2c(C3CCCCC3)c(-c3ccc4nc(-c5ccc(C(F)(F)F)cc5)ccc4c3)n(CC(=O)N3CCOCC3)c2c1` [Compound 263, 3-Cyclohexyl-1-(2-morpholin-4-yl-2-oxo-ethyl)-2-[2-(4-trifluoromethyl-phenyl)-quinolin-6-yl]-1H-indole-6-carboxylic acid], the figure is 94.4%; as for `Nc1cccc(-c2ccc3cc(-c4c(C5CCCCC5)c5ccc(C(=O)O)cc5n4CC(=O)N4CCOCC4)ccc3n2)c1` [Compound 264, 2-[2-(3-Amino-phenyl)-quinolin-6-yl]-3-cyclohexyl-1-(2-morpholin-4-yl-2-oxo-ethyl)-1H-indole-6-carboxylic acid], 93%; as for `O=C(O)c1ccc2c(C3CCCCC3)c(-c3ccc4nc(-c5ccc(F)cc5)ccc4c3)n(CC(=O)N3CCOCC3)c2c1` [Compound 265, 3-Cyclohexyl-2-[2-(4-fluoro-phenyl)-quinolin-6-yl]-1-(2-morpholin-4-yl-2-oxo-ethyl)-1H-indole-6-carboxylic acid], 96.3%. As for `O=C(O)c1ccc2c(C3CCCCC3)c(-c3ccc4nc(-c5ccc(F)c(F)c5)ccc4c3)n(CC(=O)N3CCOCC3)c2c1` [Compound 266, 3-Cyclohexyl-2-[2-(3,4-difluoro-phenyl)-quinolin-6-yl]-1-(2-morpholin-4-yl-2-oxo-ethyl)-1H-indole-6-carboxylic acid], the figure is 97.1%.
